Measurements from patent publication US10065942B2, “Crystalline (2S)-3-[(3S,4S)-3-[(1R)-1-hydroxyethyl]-4-(4-methoxy-3-{[1-(5-methylpyridin-2-yl)azetidin-3-yl]oxy}phenyl)-3-methylpyrrolidin-1-yl]-3-oxopropane-1,2-diol” (Eli Lilly and Company, priority 2014, dated 2018).

Tested on: chronic cyclophosphamide (CYP)-induced overactive bladder mouse model
Experiment: Overactive Bladder In Vivo Model (chronic cyclophosphamide-induced OAB)
Conditions: for Mean Voiding Frequency (no./4 hr) / Mean Volume/Void: oral daily, day 8, female C57/Bl6 mice
Protocol: The in vivo effect of PDE4 inhibitors on OAB is studied with a chronic cyclophosphamide (CYP)-induced overactive bladder mouse model adapted from Boudes et al., Neurourol. Urodynam. 2011. In a typical study, female C57/Bl6 mice, approximately 20 grams in body weight (Harlan Laboratories, Inc., Indianapolis, Ind.) are used. Mice are randomized by body weight into groups one day before the start of the study. Mice are individually housed and maintained on a 12 hour light/dark cycle at 22° C. with ad lib access to food (TD 2014 with 0.72% Ca and 0.61% P, 990 IU/g D3, Teklad™, Madison, Wis.) and water. Animals receive cyclophosphamide (dissolved in physiological saline) i.p. administration at 100 mg/kg on days 1, 3, 5, and 7 to chronically induce OAB. The vehicle control group received daily vehicle (HEC 1%/Tween 80 0.25%/Antifoam 0.05%) administered orally. All other groups are administered orally tadalafil at 10 mg/kg in combination with 0.1, 1.0, or 10.0 mg/kg of test compound daily at a volume of 200 μl/mouse. On day 8, mice are housed in urine collection chambers with a filter paper placed underneath chamber. Prior to urine collection, gavages of 1 ml water are given to each mouse. Urine is collected from 6 pm to 10 pm (i.e. for 4 hrs). Gel cups (DietGel™ 76A) are supplied as water source during the 4 hour period. The filter paper is changed every hour. Voiding frequency and volume/void are calculated using Image J software (NIH). Data are statistically analyzed with JMP8® software (Cary, N. C.).
All treatment groups receive a fixed dose of 10 mg/kg of tadalafil.

[1] = Example 2 0.1 mg/kg + tadalafil 10 mg/kg
[2] = Example 2 1.0 mg/kg + tadalafil 10 mg/kg
[3] = Example 2 10.0 mg/kg + tadalafil 10 mg/kg
[4] = given with tadalafil 10 mg/kg, 0.1, 1.0, 10.0 mg/kg oral daily

COc1ccc([C@@H]2CN(C(=O)[C@@H](O)CO)C[C@@]2(C)[C@@H](C)O)cc1OC1CN(c2ccc(C)cn2)C1 [Example 2, (2S)-3-[(3S,4S)-3-[(1R)-1-hydroxyethyl]-4-(4-methoxy-3-{[1-(5-methylpyridin-2-yl)azetidin-3-yl]oxy}phenyl)-3-methylpyrrolidin-1-yl]-3-oxopropane-1,2-diol]
Mean Voiding Frequency (no./4 hr) [1]: 10 no./4 hr | Mean Volume/Void [1]: 47.3 µL | Mean Voiding Frequency (no./4 hr) [2]: 8.61 no./4 hr | Mean Volume/Void [2]: 77.2 µL | Mean Voiding Frequency (no./4 hr) [3]: 8.38 no./4 hr | Mean Volume/Void [3]: 81.9 µL | effect on urinary frequency (in words) [4]: significantly reduces urinary frequency in a dose-dependent fashion | effect on volume/void (in words) [4]: increases of volume/void are also observed in a dose-dependent fashion
